Data reported in patent US9562034B2, “Endoparasite control agent” (The University of Tokyo, priority 2012, dated 2017).
Like-named read-outs stand apart in the source and are kept apart here.

How the values were obtained:
[1] = molecular target: T1, Ascaris suum succinate-ubiquinone reductase (mitochondrial complex II) (Ascaris suum, UniProt O44074+P92506+P92507); experiment: In vitro inhibitory activity on Ascaris suum succinate-ubiquinone reductase (mitochondrial complex II); assay type: biochemical
T1 construct: from tissue; host or cells: mitochondria from adult Ascaris suum muscle
Procedure: In Vitro Measurement of Inhibitory Activity on Ascaris suum Succinate-Ubiquinone Reductase (Mitochondrial Complex II)
To a solution containing 50 mM potassium phosphate (pH 7.4) and 0.1% (w/v) sucrose monolaurate, an electron acceptor ubiquinone-2 (UQ2) was added at a final concentration of 60 μM, and the mixture was allowed to stand at 25° C. for 20 minutes. To this, potassium cyanide (final concentration: 2 mM) and mitochondria prepared from adult Ascaris suum muscle were added, and thorough mixing was done. To aliquots of the mixture, an inhibitor to be tested was added at various concentrations, and the mixtures were allowed to stand at 25° C. for 3 minutes. The enzymatic reaction was initiated by addition of potassium succinate (final concentration: 10 mM).

[2] = tested on: Haemonchus contortus L1-stage larvae; experiment: In vivo activity test on Haemonchus nematode (motor ability of L1-stage larvae, 96-well plate); details: twenty L1-stage larvae per well, 27° C./95% RH for 4 days, DMSO 0.78% (v/v)
Procedure: In Vivo Activity Test on Haemonchus Nematode
In a 96-well plate, twenty L1-stage larvae (Haemonchus contortus) per well were maintained so that they could freely move, and solutions of compounds of the present invention dissolved at predetermined concentrations in DMSO (the final concentration of DMSO was 0.78% (v/v)) were added at 0.5 μl/well each. The plate was kept under the conditions of 27° C./95% RH for 4 days. The motor ability of the larvae was examined and the concentration required for 50% inhibition of the motor ability (EC50) was determined. Based on the EC50 value, the activity against the Haemonchus nematode was graded according to the criterion shown below.
• A: The EC50 value is lower than 0.5 ppm. • B: The EC50 value is 0.5 ppm or higher but lower than 5 ppm. • C: The EC50 value is 5 ppm or higher.

[3] = mitochondria from adult Ascaris suum muscle, UQ2 60 μM, potassium succinate 10 mM, 25° C., absorbance at 278 nm, read-out: Ascaris suum IC50 value (A)

T1 sequence (O44074 22-282): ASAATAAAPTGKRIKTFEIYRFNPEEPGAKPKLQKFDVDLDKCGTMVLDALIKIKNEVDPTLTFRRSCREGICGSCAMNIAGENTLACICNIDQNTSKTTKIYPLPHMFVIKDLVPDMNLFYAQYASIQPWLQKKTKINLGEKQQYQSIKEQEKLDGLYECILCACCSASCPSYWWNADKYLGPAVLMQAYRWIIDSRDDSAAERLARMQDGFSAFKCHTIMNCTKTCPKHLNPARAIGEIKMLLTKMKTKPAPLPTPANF
T1 sequence (P92506 32-188): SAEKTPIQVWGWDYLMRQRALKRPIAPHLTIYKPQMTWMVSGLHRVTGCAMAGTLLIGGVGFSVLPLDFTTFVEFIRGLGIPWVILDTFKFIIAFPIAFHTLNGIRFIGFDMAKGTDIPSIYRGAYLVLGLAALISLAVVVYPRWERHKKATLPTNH
T1 sequence (P92507 26-156): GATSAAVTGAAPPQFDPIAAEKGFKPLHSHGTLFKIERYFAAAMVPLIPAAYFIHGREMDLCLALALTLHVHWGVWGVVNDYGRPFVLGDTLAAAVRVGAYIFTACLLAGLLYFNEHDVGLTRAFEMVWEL
T1 sequence (Q33862 19-645 partner): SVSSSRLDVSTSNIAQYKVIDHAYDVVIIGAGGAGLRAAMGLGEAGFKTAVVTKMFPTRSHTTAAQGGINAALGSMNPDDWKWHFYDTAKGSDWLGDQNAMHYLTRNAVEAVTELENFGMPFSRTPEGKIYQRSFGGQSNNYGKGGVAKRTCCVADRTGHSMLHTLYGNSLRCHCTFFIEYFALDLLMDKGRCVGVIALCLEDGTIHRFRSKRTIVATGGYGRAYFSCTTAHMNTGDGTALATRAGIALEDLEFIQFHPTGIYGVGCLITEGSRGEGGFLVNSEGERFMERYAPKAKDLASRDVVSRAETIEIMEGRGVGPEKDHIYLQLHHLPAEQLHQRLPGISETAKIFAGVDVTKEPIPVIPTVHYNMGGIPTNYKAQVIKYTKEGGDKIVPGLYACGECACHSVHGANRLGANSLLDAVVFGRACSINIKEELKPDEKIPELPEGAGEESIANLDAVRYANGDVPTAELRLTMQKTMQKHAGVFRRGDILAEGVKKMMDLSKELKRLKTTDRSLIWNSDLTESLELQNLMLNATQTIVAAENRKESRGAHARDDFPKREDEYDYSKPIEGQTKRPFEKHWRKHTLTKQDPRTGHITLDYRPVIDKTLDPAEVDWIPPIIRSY

IC50 [1, 3]	Compound	IC50 [1]	Grade (EC50, concentration required for 50% inhibition of the motor ability) [2]
–	CC(Cc1ccc(Cl)cc1Cl)NC(=O)c1nccnc1I (stereo not drawn) [Compound 47]	2.3 nM	–
42 nM	C[C@@H](Cn1nc(Br)c(Br)c1Br)NC(=O)c1cccnc1Cl [Compound 41]	–	–
–	CC(Cc1ccc(Cl)cc1Cl)NC(=O)c1nccnc1C(F)(F)F (stereo not drawn) [Compound 15]	–	A (The EC50 value is lower than 0.5 ppm.)
20 nM	C[C@@H](COc1ncc(C(F)(F)F)cc1Cl)NC(=O)c1cccnc1Cl [Compound 44]	–	–
3.3 nM	CC(Cc1ccc(Cl)cc1Cl)NC(=O)c1nccnc1Cl (stereo not drawn) [Compound 14]	–	–
1.6 nM	Cc1occc1C(=O)NCCc1ccc(Cl)cc1Cl [Compound 50]	–	–
47 nM	O=C(NCCc1ncc(C(F)(F)F)cc1Cl)c1cccnc1Cl [Compound 1]	–	A (The EC50 value is lower than 0.5 ppm.)
18 nM	O=C(NCCc1cc(F)c(Cl)cc1F)c1cccnc1Cl [Compound 25]	–	A (The EC50 value is lower than 0.5 ppm.)
57 nM	Nc1nc(C(F)(F)F)c(C(=O)NCCc2ccc(Cl)cc2Cl)s1 [Compound 2]	–	–
2.7 nM	O=C(NCC1(c2ccc(Cl)cc2Cl)CC1)c1nccnc1Cl [Compound 13]	–	A (The EC50 value is lower than 0.5 ppm.)
2.9 nM	CC(Cc1cc(F)c(F)cc1Cl)NC(=O)c1nccnc1C(F)(F)F (stereo not drawn) [Compound 26]	–	–
1.1 nM	O=C(NCCc1ccc(Cl)cc1Cl)c1sccc1C(F)(F)F [Compound 7]	–	A (The EC50 value is lower than 0.5 ppm.)
–	Cc1c(C(=O)NCCc2ccc(Cl)cc2Cl)c(C(F)(F)F)nn1C [Compound 35]	–	B (The EC50 value is 0.5 ppm or higher but lower than 5 ppm.)
3.4 nM	O=C(NCCc1ccc(F)cc1Cl)c1nccnc1C(F)(F)F [Compound 11]	–	–
–	Cc1nccnc1C(=O)NCCc1ccc(-c2ccc(OC(F)(F)F)cc2)cc1 [Compound 48]	–	A (The EC50 value is lower than 0.5 ppm.)
–	O=C(NCCc1ccc(Cl)cc1Cl)C1=C(C(F)(F)F)OCCS1 [Compound 33]	7.3 nM	A (The EC50 value is lower than 0.5 ppm.)
2 nM	O=C(NCCc1cc(F)c(Cl)cc1F)c1nccnc1C(F)(F)F [Compound 24]	–	A (The EC50 value is lower than 0.5 ppm.)
1.3 nM	O=C(NCCc1cc(F)c(Cl)cc1Cl)c1nccnc1C(F)(F)F [Compound 28]	–	A (The EC50 value is lower than 0.5 ppm.)

IC50 [1, 3]	Compound	IC50 [1]	Grade (EC50, concentration required for 50% inhibition of the motor ability) [2]
–	Cc1nc(C(F)(F)F)c(C(=O)NCCc2ccc(Cl)cc2Cl)s1 [Compound 38]	–	B (The EC50 value is 0.5 ppm or higher but lower than 5 ppm.)
3.1 nM	O=C(NC1(Cc2ccc(Cl)cc2Cl)CC1)c1nccnc1C(F)(F)F [Compound 18]	–	–
2.2 nM	O=C(NCCc1cc(F)c(F)cc1Cl)c1nccnc1C(F)(F)F [Compound 27]	–	–
42 nM	O=C(NCCc1ccc(Cl)cc1Cl)c1cnccc1C(F)(F)F [Compound 31]	–	–
–	O=C(NCCc1ccc(-c2ccc(OC(F)(F)F)cc2)cc1F)c1nccnc1Cl [Compound 17]	2 nM	A (The EC50 value is lower than 0.5 ppm.)
6 nM	Cc1cccnc1C(=O)NCCc1ccc(Cl)cc1Cl [Compound 30]	–	–
13 nM	C[C@@H](Cn1nc(Br)c(Br)c1Br)NC(=O)c1cccnc1C(F)(F)F [Compound 42]	–	–
1.5 nM	O=C(NCC1(c2ccc(Cl)cc2Cl)CC1)c1nccnc1C(F)(F)F [Compound 16]	–	A (The EC50 value is lower than 0.5 ppm.)
4.5 nM	O=C(NCCc1ccc(Oc2ccc(C(F)(F)F)cn2)cc1Cl)c1cccnc1Cl [Compound 45]	–	–
26 nM	Cc1nccnc1C(=O)NCCc1ccc(-c2ccc(OC(F)(F)F)cc2)cc1 [Compound 5]	–	–
9.4 nM	O=C(NCCc1ncc(C(F)(F)F)cc1Cl)c1nccnc1C(F)(F)F [Compound 3]	–	A (The EC50 value is lower than 0.5 ppm.)
6.7 nM	O=C(NCCc1cc(F)c(Cl)cc1Cl)c1cccnc1Cl [Compound 29]	–	–
1.3 nM	O=C(NCCc1ccc(-c2ccc(OC(F)(F)F)cc2)cc1Cl)c1nccnc1C(F)(F)F [Compound 4]	–	–
9.9 nM	C[C@@H](Cn1nc(C(F)(F)F)c(Cl)c1Cl)NC(=O)c1nccnc1C(F)(F)F [Compound 43]	–	–
1.7 nM	O=C(NCCc1ccc(Oc2ncc(C(F)(F)F)cc2Cl)cc1Cl)c1cccnc1Cl [Compound 22]	–	A (The EC50 value is lower than 0.5 ppm.)
10 nM	CC(Cc1ccc(Cl)cc1F)NC(=O)c1nccnc1Cl (stereo not drawn) [Compound 23]	–	A (The EC50 value is lower than 0.5 ppm.)
–	O=C(NCCc1ccc(Cl)cc1Cl)c1nccnc1C(F)(F)F [Compound 9]	–	A (The EC50 value is lower than 0.5 ppm.)

Compound	IC50 [1, 3]	IC50 [1]	Grade (EC50, concentration required for 50% inhibition of the motor ability) [2]
O=C(NCCc1ccc(Cl)cc1Cl)c1cccnc1C(F)(F)F [Compound 6]	4.4 nM	–	A (The EC50 value is lower than 0.5 ppm.)
O=C(NCCc1ccc(C(F)(F)F)cc1Cl)c1nccnc1C(F)(F)F [Compound 19]	1.3 nM	–	A (The EC50 value is lower than 0.5 ppm.)
O=C(NCCc1ccc(Oc2ncc(C(F)(F)F)cc2Cl)cc1Cl)c1nccnc1C(F)(F)F [Compound 21]	1.3 nM	–	A (The EC50 value is lower than 0.5 ppm.)
O=C(NCCc1ccc(Cl)cc1F)c1nccnc1C(F)(F)F [Compound 20]	4.9 nM	–	–
